Measured values taken from patent publication US10195156B2, “Compounds and compositions for intracellular delivery of agents” (ModernaTX, Inc., priority 2015, dated 2019).

Tests used:
[1] = Particle size and polydispersity index of nanoparticle compositions (Zetasizer Nano ZS); assay type: physicochemical; settings: for PDI / Size (nm): Table 1
Procedure, shortened: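 Particle size and PDI were measured on a Zetasizer Nano ZS with the nanoparticle compositions dispersed in 1×PBS.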

[2] = Encapsulation efficiency of RNA (QUANT-IT RIBOGREEN RNA assay); assay type: physicochemical; settings: for EE (%): Table 1; for encapsulation efficiency, rank within the named table (in words): comparison amongst compositions
Procedure, shortened: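 Nanoparticle samples diluted to ~5 μg/mL RNA in TE buffer (pH 7.5), incubated with or without 2% Triton X-100 solution at 37 °C for 15 min, then RiboGreen added. Fluorescence read at ~480/520 nm, blank-subtracted; free RNA % = intact over Triton-disrupted signal.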

[3] = tested on: modified luciferase expression; experiment: Expression of Luc in different organs (liver, lung, spleen, femur) 6 hours after intravenous administration; assay type: in vivo; settings: Table 3, mice, i.v., 0.5 mpk
Procedure: The efficacy of the nanoparticle compositions presented in Tables 1, 1a, 17-1, 19-1, 20-1 and 21-1 was further evaluated by measuring the expression of modified luciferase in the liver, lung, spleen, and femur upon administration of a given composition. Formulations were administered intravenously to mice (n=3) at a dosage of 0.5 mpk and bioluminescence measured after 6 hours. The standard MC3 formulation and a PBS control were also tested.

[4] = pKa of nanoparticle compositions; assay type: physicochemical; settings: Table 1
IL-6 = experiment: Cytokine production induced by sample formulations: IL-6; assay type: in vivo; settings: Table 4; mice, i.v., 0.5 mpk, 6 hours; in pg/mL (unit assumed)
Procedure, shortened: (§1)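 Mice received nanoparticle formulations intravenously at 0.5 mpk, with standard MC3 formulation and PBS as controls. Cytokine concentrations were measured 6 hours after dosing.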

[5] = tested on: luciferase (Luc) mRNA expression; experiment: Expression of Luc induced by sample formulations, whole-body bioluminescence after intravenous administration; assay type: in vivo; settings: mice, i.v., 0.5 mg/kg; for Total Flux 3 hours / Total Flux 6 hours / Total Flux 24 hours: Table 2
Procedure, shortened: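 Mice (n=6) dosed intravenously with Luc mRNA nanoparticle formulations at 0.5 mg/kg. Whole-body bioluminescence measured at 3, 6 and 24 h. Standard MC3 formulation and PBS control run alongside.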

IP-10 = experiment: Cytokine production induced by sample formulations: IP-10; assay type: in vivo; settings: mice, i.v., 0.5 mpk, 6 hours; for IP-10: Table 4, in pg/mL (unit assumed)
Procedure, shortened: as §1

[6] = Lipid clearance: % dose remaining in mouse liver 6 h and 24 h after administration of nanoparticle compositions; assay type: in vivo, CD-1 mice; settings: CD-1 mice
Source text: In contrast, hEPO expression in rats induced by administration of a nanoparticle composition including a compound according to one of formulae (I), (Ia1)-(Ia6), (Ib), (II), (IIa), (III), and (IIIa) was substantially […] than that measured for MC3. […] Table 7c and 7d show additional protein expressions and clearance data from compositions with various compounds disclosed herein as compared to with MC3.

[7] = rows without footnote mark (lipid:DOPE:cholesterol:PEG-DMG 40:20:38.5:1.5, Luc mRNA; MC3 standard formulation)
[8] = * formulated with lipid:DSPC:Chol:PEG-DMG 50:10:38.5:1.5
[9] = * lipid:DSPC:Chol:PEG-DMG 50:10:38.5:1.5

CCCCCCCCCCCCCCN(CCCCCCCCCCCCCC)CCN(CCCCCCCCCCCCCC)CCN1CCN(CCN(CCCCCCCCCCCCCC)CCCCCCCCCCCCCC)CC1 [Compound 32, N^1-(2-(4-(2-(Ditetradecylamino)ethyl)piperazin-1-yl)ethyl)-N^1,N^2,N^2-tritetradecylethane-1,2-diamine]
PDI ([1]; rows without footnote mark): 0.160
Size (nm) [1, 7]: 79.3 nm
EE (%) ([2]; rows without footnote mark): 83.6%
Total Flux Femur [3]: 1.02E+05
Total Flux Liver [3]: 8.36E+07
Total Flux Lung [3]: 6.75E+05
Total Flux Spleen [3]: 9.38E+05
pKa ([4]; rows without footnote mark): 6.28
IL-6 (IL-6): 174
Total Flux 3 hours [5]: 6.85E+08
Total Flux 6 hours [5]: 5.88E+08
Total Flux 24 hours ([5]; 24 hours): 4.37E+07
IP-10 (IP-10): 727

CCCCCCCC/C=C\CCCCCCCCN(CCCCCCCC/C=C\CCCCCCCC)CCN(CCCCCCCC/C=C\CCCCCCCC)CCN1CCN(CCN(CCCCCCCCCCCC)CCCCCCCCCCCC)CC1 [Compound 33, N^1-(2-(4-(2-(Didodecylamino)ethyl)piperazin-1-yl)ethyl)-N^1,N^2,N^2-tri((Z)-octadec-9-en-1-yl)ethane-1,2-diamine]
PDI ([1]; rows without footnote mark): 0.138
Size (nm) [1, 7]: 79.7 nm
EE (%) ([2]; rows without footnote mark): 98.1%
Total Flux Femur [3]: 1.18E+06
Total Flux Liver [3]: 6.15E+08
Total Flux Lung [3]: 2.84E+06
Total Flux Spleen [3]: 4.82E+06
pKa ([4]; rows without footnote mark): 6.06
IL-6 (IL-6): 37
Total Flux 3 hours [5]: 1.64E+09
Total Flux 6 hours [5]: 4.71E+09
Total Flux 24 hours ([5]; 24 hours): 1.54E+08
IP-10 (IP-10): 1577

CCCCC/C=C\C/C=C\CCCCCCCCN(CCCCCCCC/C=C\C/C=C\CCCCC)CCN(CCCCCCCC/C=C\C/C=C\CCCCC)CCN1CCN(CCN(CCCCCCCCCCCC)CCCCCCCCCCCC)CC1 [Compound 34, N^1-(2-(4-(2-(Didodecylamino)ethyl)piperazin-1-yl)ethyl)-N^1,N^2,N^2-tri((9Z,12Z)-octadeca-9,12-dien-1-yl)ethane-1,2-diamine]
Size (nm) [1, 8]: 66.0 nm
PDI [1, 9]: 0.077
particle size, rank within the named table (in words) ([1]; comparison amongst compositions): smallest particles
EE (%) [2, 9]: 98.1%
Total Flux Liver [3]: 2.79E+06
Total Flux Lung [3]: 5.63E+04
Total Flux Spleen [3]: 1.22E+06
pKa [4, 9]: 5.74
IL-6 (IL-6): 28
Total Flux 3 hours [5]: 7.77E+06
Total Flux 6 hours [5]: 1.88E+07
Total Flux 24 hours ([5]; 24 hours): 2.19E+06
IP-10 (IP-10): 159

CCCCCCCCCN(CCCCCCCCC)CCN(CCCCCCCCC)CCN1CCNCC1 [Compound 36, N^1,N^1,N^2-Trinonyl-N^2-(2-(piperazin-1-yl)ethyl)ethane-1,2-diamine]
Size (nm) [1, 8]: 100.8 nm
PDI [1, 9]: 0.110
EE (%) [2, 9]: 100.2%
encapsulation efficiency, rank within the named table (in words) [2]: highest
Total Flux Liver [3]: 5.85E+04
Total Flux Lung [3]: 2.74E+04
Total Flux Spleen [3]: 1.24E+05
pKa [4, 9]: 7.81
IL-6 (IL-6): 41
Total Flux 3 hours [5]: 6.90E+05
Total Flux 6 hours [5]: 3.93E+05
Total Flux 24 hours ([5]; 24 hours): 1.68E+05
total flux after 24 hours, rank within the named table (in words) ([5]; 24 hours): lowest flux after 24 hours
IP-10 (IP-10): 118
IP-10 induction, rank or comparison with IL-6 (in words) (IP-10): lowest IP-10 expression

CCCCCCCC/C=C\CCCCCCCCN(CCCCCCCC/C=C\CCCCCCCC)CCN(CCCCCCCC/C=C\CCCCCCCC)CCN1CCNCC1 [Compound 40, N^1,N^1,N^2-Tri((Z)-octadec-9-en-1-yl)-N^2-(2-(piperazin-1-yl)ethyl)ethane-1,2-diamine]
Size (nm) [1, 8]: 78.9 nm
PDI [1, 9]: 0.210
EE (%) [2, 9]: 100.0%
encapsulation efficiency, rank within the named table (in words) [2]: highest
Total Flux Liver [3]: 1.33E+06
Total Flux Lung [3]: 1.42E+05
Total Flux Spleen [3]: 5.68E+05
pKa [4, 9]: 6.78
IL-6 (IL-6): 134
Total Flux 3 hours [5]: 1.24E+08
Total Flux 6 hours [5]: 1.07E+07
Total Flux 24 hours ([5]; 24 hours): 5.62E+06
IP-10 (IP-10): 919

CCCCC/C=C\C/C=C\CCCCCCCCN(CCCCCCCC/C=C\C/C=C\CCCCC)CCN(CCCCCCCC/C=C\C/C=C\CCCCC)CCN1CCNCC1 [Compound 41, N^1,N^1,N^2-Tri((9Z,12Z)-octadeca-9,12-dien-1-yl)-N^2-(2-(piperazin-1-yl)ethyl)ethane-1,2-diamine]
Size (nm) [1, 8]: 69.0 nm
PDI [1, 9]: 0.239
EE (%) [2, 9]: 99.9%
encapsulation efficiency, rank within the named table (in words) [2]: highest
Total Flux Liver [3]: 3.00E+06
Total Flux Lung [3]: 1.34E+05
Total Flux Spleen [3]: 2.13E+06
pKa [4, 9]: 7.02
IL-6 (IL-6): 116
Total Flux 3 hours [5]: 4.06E+07
Total Flux 6 hours [5]: 2.04E+07
Total Flux 24 hours ([5]; 24 hours): 6.05E+07
IP-10 (IP-10): 350

CCCCCCCCCN(CCCCCCCCC)CCN(CCCCCCCCC)CC(=O)N1CC2CC1CN2C(=O)CN(CCCCCCCCC)CCCCCCCCC (centres unmarked) [Compound 42, 2-(Dinonylamino)-1-(5-(N-(2-(dinonylamino)ethyl)-N-nonylglycyl)-2,5-diazabicyclo[2.2.1]heptan-2-yl)ethan-1-one]
PDI ([1]; rows without footnote mark): 0.190
Size (nm) [1, 7]: 116.4 nm
EE (%) ([2]; rows without footnote mark): 97.1%
Total Flux Liver [3]: 5.53E+09
Total Flux Spleen [3]: 2.29E+08
pKa ([4]; rows without footnote mark): 6.77
Total Flux 6 hours [5]: 4.99E+10
% Dose remaining 6 h CD-1 mice [6]: 58%
% Dose remaining 24 h CD-1 mice [6]: 53%

CCCCCCCCCCCCN(CCCCCCCCCCCC)CCN(CCCCCCCCCCCC)CC(=O)N1CC2CC1CN2C(=O)CN(CCCCCCCCC)CCCCCCCCC (centres unmarked) [Compound 43, 2-((2-(Didodecylamino)ethyl)(dodecyl)amino)-1-(5-(dinonylglycyl)-2,5-diazabicyclo[2.2.1]heptan-2-yl)ethan-1-one]
PDI ([1]; rows without footnote mark): 0.220
Size (nm) [1, 7]: 99.0 nm
EE (%) ([2]; rows without footnote mark): 99.1%
Total Flux Liver [3]: 2.60E+08
Total Flux Spleen [3]: 4.52E+07
pKa ([4]; rows without footnote mark): 6.72
Total Flux 6 hours [5]: 4.54E+09
% Dose remaining 6 h CD-1 mice [6]: 69%
% Dose remaining 24 h CD-1 mice [6]: 64%

CCCCCCCCCN(CCCCCCCCC)CCN(CCCCCCCCC)CC(=O)N1CCN(C(=O)CN(CCCCCCCCC)CCCCCCCC(=O)OC)CC1 [Compound 44, Methyl 8-((2-(4-(N-(2-(dinonylamino)ethyl)-N-nonylglycyl)piperazin-1-yl)-2-oxoethyl)(nonyl)amino)octanoate]
PDI ([1]; rows without footnote mark): 0.190
Size (nm) [1, 7]: 94.9 nm
EE (%) ([2]; rows without footnote mark): 89.5%
Total Flux Liver [3]: 1.11E+09
Total Flux Spleen [3]: 1.19E+08
pKa ([4]; rows without footnote mark): 6.82
Total Flux 6 hours [5]: 1.07E+10
% Dose remaining 6 h CD-1 mice [6]: <1%
% Dose remaining 24 h CD-1 mice [6]: <1%
